In one data set the test system is angiogenesis. Put plainly: Steroids tested with heparin and heparin fragments against angiogenesis. An excerpt: Deltacortisone has not previously been disclosed for use in combination with heparin fragments generally, or pentosan polysulfate.
A further data set concerns tumor angiogenesis. The settings on record: hamster cheek pouch, under certain conditions; cited from earlier work.
The conditions of data set [1]: cited from earlier work.
Data set [2] relates to transitional cell carcinoma. The data set is described as follows: Subcutaneous transitional cell carcinoma in mice, oral or injected therapy. In kind it is in vivo. The protocol:
100 mice injected with live transitional cell carcinoma subcutaneously, and were grown to a maximum size of 2 cm prior to therapy. The mice were given SP₅₄ and hydrocortisone orally and by injection. The composition was orally administered with SP₅₄ at 0.06 mg/ml and hydrocortisone at 0.5 mg/ml in drinking water. In others the composition was injected with 0.66 mg/ml SP₅₄ and hydrocortisone at 3 mg/ml twice daily, 0.55 ml.

Structures are written as SMILES.

With `C[C@]12CC[C@H]3[C@@H](CCC4=CC(=O)CC[C@@]43C)[C@@H]1CC[C@@H]2O` [testosterone], the overcoming angiogenesis result with angiogenesis is reported as “ineffective”.

For the molecule `C[C@H]1C[C@@H]2[C@H]([C@@H](O)C[C@@]3(C)[C@H]2CC[C@]3(O)C(=O)CO)[C@@]2(C)C=CC(=O)C=C12` [6 alpha-methyl-prednisolone], the “effect on tumor angiogenesis” value in the data set on tumor angiogenesis is reported as “partially suppressed”.

In the case of `CC(=O)[C@H]1CC[C@H]2[C@@H]3CCC4=CC(=O)CC[C@]4(C)[C@H]3CC[C@]12C` [progesterone], the overcoming angiogenesis entry with angiogenesis was “ineffective”.

For `C[C@]12CCC(=O)C=C1CC[C@@H]1[C@@H]2CC[C@@]2(C)[C@H]1CC[C@]2(O)C(=O)CO` [cortexolone], in the data set with angiogenesis, the overcoming angiogenesis entry is “ineffective”.

Regarding `C[C@]12C=CC(=O)C=C1CC[C@@H]1[C@@H]2C(=O)C[C@@]2(C)[C@H]1CC[C@]2(O)C(=O)CO` [Deltacortisone], the water solubility result in data set [1] is reported as “not water soluble to a sufficiently substantial extent”.

Turning to `C[C@]12C[C@H](O)[C@H]3[C@@H](CCC4=CC(=O)CC[C@@]43C)[C@@H]1CC[C@@H]2C(=O)CO` [corticosterone], in the data set with angiogenesis, the overcoming angiogenesis result is listed as “ineffective”.

As to `C[C@]12CCC(=O)C=C1CC[C@@H]1[C@@H]2[C@@H](O)C[C@@]2(C)[C@H]1CC[C@]2(O)C(=O)CO` [hydrocortisone], in data set [2] (SP₅₄ eliminated from treatment), the effect on tumor entry is given as “regression of tumor”. In addition, the lung metastasis result in data set [2] (mice with transitional cell carcinoma after treatment) was “found to have lung metastasis”.

For `CC(C)CCC[C@@H](C)[C@H]1CC[C@H]2[C@@H]3CC=C4C[C@@H](O)CC[C@]4(C)[C@H]3CC[C@]12C` [cholesterol], the overcoming angiogenesis result in the data set on angiogenesis is reported as “ineffective”.

Take `CC(=O)[C@H]1CC[C@H]2[C@@H]3CC=C4C[C@@H](O)CC[C@]4(C)[C@H]3CC[C@]12C` [pregnenolone]: the overcoming angiogenesis result in the data set with angiogenesis was “ineffective”.
